Our source for the Kd values is article PMC2755957 (The Journal of Biological Chemistry, 2009).

Numbering of substitutions follows the chain as printed.

For test [1], the target named is T1, mouse Δ1–24-L-PGDS (lipocalin type prostaglandin D synthase) (Mus musculus, UniProt O09114, W54A).
T1 sequence (O09114 25-189 W54A): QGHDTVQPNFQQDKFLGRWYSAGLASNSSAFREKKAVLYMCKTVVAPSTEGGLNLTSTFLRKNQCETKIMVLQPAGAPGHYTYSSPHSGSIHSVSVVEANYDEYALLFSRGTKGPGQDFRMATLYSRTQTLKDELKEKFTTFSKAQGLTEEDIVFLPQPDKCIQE
In words: surface plasmon resonance. Format: binding.

The target in test [2] is T2, mouse Δ1–24-L-PGDS (lipocalin type prostaglandin D synthase) (Mus musculus, UniProt O09114).
T2 sequence (O09114 25-189): T1 sequence (O09114 25-189 W54A) with A30W
In words: surface plasmon resonance. The class given is binding.

The target in another test is T3, Δ^1–24-C65A + W54A (Mus musculus, UniProt O09114, C65A/W54A).
T3 sequence (O09114 1-189 W54A/C65A): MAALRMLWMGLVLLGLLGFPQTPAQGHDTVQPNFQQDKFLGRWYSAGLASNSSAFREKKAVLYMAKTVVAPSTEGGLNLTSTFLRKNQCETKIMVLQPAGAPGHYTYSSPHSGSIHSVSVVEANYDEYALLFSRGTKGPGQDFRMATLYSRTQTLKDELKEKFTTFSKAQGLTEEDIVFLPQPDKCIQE
Nature of the test: biochemical.

The next test deals with T4, Δ^1–24-C65A + P110A (Mus musculus, UniProt O09114, C65A/P110A).
T4 sequence (O09114 1-189 C65A/P110A): T3 sequence (O09114 1-189 W54A/C65A) with A54W, P110A
Nature of the test: biochemical.

A further test has as its target T5, Δ^1–24-L-PGDS + P110A (Mus musculus, UniProt O09114, P110A).
T5 sequence (O09114 1-189 P110A): T3 sequence (O09114 1-189 W54A/C65A) with A54W, A65C, P110A
In words: biochemical.

The target in test [3] is T6, mouse Δ1–24-L-PGDS (lipocalin type prostaglandin D synthase) (Mus musculus, UniProt O09114, H116A).
T6 sequence (O09114 25-189 H116A): T1 sequence (O09114 25-189 W54A) with A30W, H92A
In words: biochemical.

Test [4] concerns the target T6, mouse Δ1–24-L-PGDS (lipocalin type prostaglandin D synthase). In words: surface plasmon resonance. Format: binding.
The target of test [5] is T7, Δ^1–24-L-PGDS + S45A/S81A (Mus musculus, UniProt O09114, S45A/S81A).
T7 sequence (O09114 1-189 S45A/S81A): T3 sequence (O09114 1-189 W54A/C65A) with S45A, A54W, A65C, S81A
Nature of the test: biochemical.

Take `CCCCC[C@H](O)/C=C/[C@H]1[C@@H]2CO[C@@H](C2)[C@@H]1C/C=C\CCCC(=O)O` [U-44069]: the Kd is 20.3 ± 1.9 µM in test [1]; 17.5 ± 1.2 µM in test [2]; 49.2 ± 3.7 µM on Δ^1–24-C65A + W54A; 22.4 ± 1.4 µM on Δ^1–24-C65A + P110A; 13.5 ± 3.1 µM at Δ^1–24-L-PGDS + P110A; 27.3 ± 2.5 µM in test [3].
`CCCCC[C@H](O)/C=C/[C@@H]1[C@@H](C/C=C\CCCC(=O)O)[C@H]2CO[C@@H]1C2` [U-46619]: the Kd turned out to be 44 ± 3.9 µM in test [1]; 48.5 ± 4.4 µM in test [4]; 22.8 ± 1.6 µM in test [2]; 42.4 ± 3.4 µM on Δ^1–24-C65A + W54A; 19.1 ± 2.6 µM in test [5].
